Measured values: patent US12667572B2, “Tricyclic compounds useful in the treatment of cancer, autoimmune and inflammatory disorders” (SCHRÖDINGER, INC., priority 2021, dated 2026)

Experiments:
[1] = system: IL10 secretion in OCI-LY10 cells; assay: Human IL10 secretion assay, Assay 2 (MSD); type: cell-based; conditions: Homo sapiens, 24 h incubation, Meso Scale Discovery, read-out: IL-10 Secretion IC50 [nM] Assay 2
Procedure: IL10 is one of the cytokines that are regulated via activation of NF-kB signaling. For example, in ABC-DLBCL cell lines, the activated NF-kB signaling leads to increased IL10 secretion. Inhibition of NF-kB signaling has been shown leading to decreased IL10 secretion.
Assay 2: OCI-LY10 cells were seeded in IMEM supplemented with 20% fetal bovine serum at 4.8×10^5 cells per 160 μL per well in 96-well V-bottom cell culture plates (corning, 3894), treated with 120 nL of 3-fold serial compound dilutions, starting at 4 mM. The final vehicle concentration was 0.075% DMSO in all wells. After a 24 h incubation, human IL-10 precoated plates (Meso Scale Discovery) were washed 3 times with PBST, and 50 μL culture medium was aspirated into the MSD plate and incubated at 4° C. overnight. The supernatant was then discarded, and the wells were washed 3 times with PB ST. SULFO-TAG Anti-human IL-10 Antibody (50×) was diluted 50-fold according to the Meso Scale Protocol, then 25 μL of SULFO-TAG Anti-human IL-10 Antibody (1×) was added. After 2 h of incubation at RT, the supernatant was discarded, and the well was washed 3 times with PBST. 2×read buffer was added and the signal was read on an MSD Sector S600. The effect of a particular compound on IL10 secretion is shown relative to the effect of DMSO; set as 100%. IC50 values (nM) were determined using 4-parametric curve-fitting.

[2] = molecular target: T1, full-length MALT1 protein His-MALT1(1-824) (Homo sapiens, UniProt Q9UDY8); assay: MALT1 protease assay, Assay 2 (1 nM MALT1, Ac-LRSR-AMC substrate); type: biochemical; conditions: 1 nM MALT1, 50 μM Ac-LRSR-AMC, 2 h pre-incubation, 8 hr incubation at RT
T1 construct: full-length MALT1 protein His-MALT1(1-824); His (N); made in house; host or cells: baculovirus-infected insect cells
T1 sequence (Q9UDY8 1-824): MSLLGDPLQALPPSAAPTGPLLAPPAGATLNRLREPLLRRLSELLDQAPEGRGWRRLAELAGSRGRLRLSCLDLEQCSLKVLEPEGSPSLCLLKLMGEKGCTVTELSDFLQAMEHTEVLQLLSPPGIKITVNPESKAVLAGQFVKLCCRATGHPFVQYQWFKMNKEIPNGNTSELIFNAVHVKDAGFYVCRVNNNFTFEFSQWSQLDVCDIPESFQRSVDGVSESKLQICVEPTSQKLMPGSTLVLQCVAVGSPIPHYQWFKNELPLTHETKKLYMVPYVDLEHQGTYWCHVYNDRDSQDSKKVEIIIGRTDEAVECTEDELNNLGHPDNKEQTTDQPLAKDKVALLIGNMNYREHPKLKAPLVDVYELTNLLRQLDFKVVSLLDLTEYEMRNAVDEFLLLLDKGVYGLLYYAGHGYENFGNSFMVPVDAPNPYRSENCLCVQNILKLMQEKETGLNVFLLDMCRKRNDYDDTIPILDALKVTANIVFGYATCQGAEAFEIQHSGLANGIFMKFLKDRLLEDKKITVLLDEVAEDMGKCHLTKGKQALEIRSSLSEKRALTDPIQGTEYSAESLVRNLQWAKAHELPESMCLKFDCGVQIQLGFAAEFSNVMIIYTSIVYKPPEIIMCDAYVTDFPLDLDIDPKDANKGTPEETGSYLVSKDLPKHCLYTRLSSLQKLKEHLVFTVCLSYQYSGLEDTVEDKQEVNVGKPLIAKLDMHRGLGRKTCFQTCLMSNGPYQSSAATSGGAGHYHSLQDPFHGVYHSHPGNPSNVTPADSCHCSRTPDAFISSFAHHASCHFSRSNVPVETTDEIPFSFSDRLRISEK
Method in brief: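 Full-length His-MALT1(1-824) from baculovirus-infected insect cells, pre-incubated with compound 2 h at RT (0.1% DMSO). Then 50 μM Ac-LRSR-AMC added. Buffer was Tris pH 7.5 with 600 mM sodium citrate, DTT, EDTA and BSA. Fluorescence (ex 355/em 460 nm) was read after 8 h at RT and normalized to high/low controls. IC50 from non-linear regression.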

Compound	IC50 [1]	IC50 [2]
Cc1cc2cc(F)c3c(n2n1)C(C)(C)CC3C(=O)Nc1cnc(-n2nccn2)c(Cl)c1 (single isomer, unassigned) [Example 157, N-(5-chloro-6-(2H-1,2,3-triazol-2-yl)pyridin-3-yl)-5-fluoro-2,8,8-trimethyl-7,8-dihydro-6H-cyclopenta[e]pyrazolo[1,5-a]pyridine-6-carboxamide]	≥ 1000 nM	10 to 100 nM
C[C@H](O)c1cnn(-c2ncc(NC(=O)[C@H]3CC4(CCC4)c4c3cnc3cc(Cl)nn43)cc2Cl)n1 (single isomer, unassigned) [Example 158]	100 to 1000 nM	10 to 100 nM
Cc1cn2ncc3c(c2n1)C(C)(C)CC3C(=O)Nc1cnc(-n2nccn2)c(Cl)c1 (single isomer, unassigned) [Example 189, N-(5-chloro-6-(2H-1,2,3-triazol-2-yl)pyridin-3-yl)-2,9,9-trimethyl-8,9-dihydro-7H-cyclopenta[d]imidazo[1,2-b]pyridazine-7-carboxamide]	100 to 1000 nM	< 10 nM
CC1(C)CC(C(=O)Nc2cnc(OC(F)F)c(Cl)c2)c2cnn3cc(Cl)nc3c21 (single isomer, unassigned) [Example 191, 2-chloro-N-(5-chloro-6-(difluoromethoxy)pyridin-3-yl)-9,9-dimethyl-8,9-dihydro-7H-cyclopenta[d]imidazo[1,2-b]pyridazine-7-carboxamide]	100 to 1000 nM	< 10 nM
CC1(C)CC(C(=O)Nc2cnc(-c3nnn(CCO)n3)c(Cl)c2)c2cnc3cc(Cl)nn3c21 (stereo not drawn) [Example 123, 2-chloro-N-(5-chloro-6-(2-(2-hydroxyethyl)-2H-tetrazol-5-yl)pyridin-3-yl)-8,8-dimethyl-7,8-dihydro-6H-cyclopenta[e]pyrazolo[1,5-a]pyrimidine-6-carboxamide]	≥ 1000 nM	10 to 100 nM

Other lines, results leading:

IC50 [1]	IC50 [2]	Compound
10 to 100 nM	< 10 nM	CC1(C)CC(C(=O)Nc2cnc(-n3nccn3)c(C(F)(F)F)c2)c2cnc3cc(F)nn3c21 (single isomer, unassigned) [Example 151, N-(6-(2H-1,2,3-triazol-2-yl)-5-(trifluoromethyl)pyridin-3-yl)-2-fluoro-8,8-dimethyl-7,8-dihydro-6H-cyclopenta[e]pyrazolo[1,5-a]pyrimidine-6-carboxamide]
10 to 100 nM	< 10 nM	C[C@@H](O)c1cnn(-c2ncc(NC(=O)[C@H]3CC4(CCC4)c4c3cnc3cc(Cl)nn43)cc2Cl)n1 (single isomer, unassigned) [Example 160]
10 to 100 nM	< 10 nM	CC1(C)CC(C(=O)Nc2cnc(-n3nccn3)c(C(F)(F)F)c2)c2cnn3cc(Cl)nc3c21 (single isomer, unassigned) [Example 193, N-(6-(2H-1,2,3-triazol-2-yl)-5-(trifluoromethyl)pyridin-3-yl)-2-chloro-9,9-dimethyl-8,9-dihydro-7H-cyclopenta[d]imidazo[1,2-b]pyridazine-7-carboxamide]
10 to 100 nM	< 10 nM	CC1(C)CC(C(=O)Nc2cnc(-n3nccn3)c(Cl)c2)c2cnn3cc(Cl)nc3c21 (single isomer, unassigned) [Example 195, 2-chloro-N-(5-chloro-6-(2H-1,2,3-triazol-2-yl)pyridin-3-yl)-9,9-dimethyl-8,9-dihydro-7H-cyclopenta[d]imidazo[1,2-b]pyridazine-7-carboxamide]
